Experimental data taken from patent US20020111318A1, “Process for the preparation of non-hygroscopic azithromycin dihydrate” (priority 2001, published 2002).

Experiments:
[1] = system: gram negative organisms; settings: Dunn and Barradell, Drugs 1996; cited from earlier work
[2] = Moisture uptake of crystals on exposure to ambient atmosphere (hygroscopicity); format: physicochemical
Method: 9-Deoxo-9a-aza-9a-homoerythromycin A (73.5 g-0.1 mole) was dissolved in 250 ml acetone. To this solution, formic acid (19 ml) followed by formaldehyde (37%, 20 ml) were added and refluxed for 24 hrs. The pH of the reaction mixture was adjusted with alkali to 10.5 and filtered to remove particles. To the filtered acetone solution equal volume of water was added to precipitate azithromycin hygroscopic monohydrate as cube shaped crystals. The crystals were filtered and dried under vacuum at 50° C. to give 65 g of azithromycin monohydrate melting at 130-131° C. having a water content of 3.42% (by Karl Fischer titration method). This sample of hygroscopic monohydrate has a characteristic solid state (KBr pellet) IR spectrum (FIG. 1) and a characteristic x-ray diffraction pattern (FIG. 4).
10 gms of hygroscopic azithromycin-monohydrate was suspended in a mixture of iso-propanol (10 ml) and water (10 ml) and stirred at ambient temperature. The transformation of cubical crystals of monohydrate form to the rhomboid form crystals of dihydrate was followed by checking the crystal habit under a microscope at every two hour interval. At 16 hours the rhomboid dihydrate crystals only were seen. The slurry was filtered and dried under vacuum at 50° C. to give 9.8 g of azithromycin dihydrate. […] It has a characteristic solid state IR spectrum (KBr pellet) (FIG. 2) and x-ray diffraction pattern (FIG. 3).

CC[C@H]1OC(=O)[C@H](C)[C@@H](O[C@H]2C[C@@](C)(OC)[C@@H](O)[C@H](C)O2)[C@H](C)[C@@H](O[C@@H]2O[C@H](C)C[C@H](N(C)C)[C@H]2O)[C@@](C)(O)C[C@@H](C)CN(C)[C@H](C)[C@@H](O)[C@]1(C)O [Azithromycin, 9-Deoxo-9a-aza-9a-methyl-9a-homo-Eryhromycin A]
activity against gram negative organisms compared to Erythromycin A [1]: significant improvement in its activity

CC[C@H]1OC(=O)[C@H](C)[C@@H](O[C@H]2C[C@@](C)(OC)[C@@H](O)[C@H](C)O2)[C@H](C)[C@@H](O[C@@H]2O[C@H](C)C[C@H](N(C)C)[C@H]2O)[C@](C)(O)C[C@@H](C)CN(C)[C@H](C)[C@@H](O)[C@]1(C)O [azithromycin dihydrate, Azithromycin dihydrate]
change in moisture content on exposure to ambient atmosphere ([2]; dihydrate crystals dried under vacuum at 50° C., then exposed to ambient atmosphere): no change in the moisture content

CC[C@H]1OC(=O)[C@H](C)[C@@H](O[C@H]2C[C@@](C)(OC)[C@@H](O)[C@H](C)O2)[C@H](C)[C@@H](O[C@@H]2O[C@H](C)C[C@H](N(C)C)[C@H]2O)[C@](C)(O)C[C@@H](C)CN(C)[C@H](C)[C@@H](O)[C@]1(C)O [azithromycin monohydrate, Azithromycin monohydrate]
moisture content reached on exposure to ambient atmosphere ([2]; exposure to ambient atmosphere, 48 hrs, water content after drying 3.42% (Karl Fischer)): 5.4%
